Patent publication US11590116B2 (THERAVANCE BIOPHARMA R&D IP, LLC, priority 2019, dated 2023)

Legend:
[1] = tested on: TGF-β-stimulated SMAD3 phosphorylation in BEAS-2B cells; assay: Cellular ALK5 potency assay, inhibition of TGF-β stimulated pSMAD3 formation in BEAS-2B cells; type: cell-based; conditions: Homo sapiens; inhibition of TGF-β stimulated pSMAD3 formation, BEAS-2B cells; read-out: BEAS2B pIC50 (converted)
How it was run: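 Cells seeded overnight; rinse with supplemented HBSS; compound 1 h at 37 °C; TGF-β 10 ng/mL final, 30 min; lyse; AlphaLISA acceptor and detector beads 2 h apart, read next day. Potency expressed as pIC50.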

[2] = biological target: T1, recombinant human ALK5 (TGF-βR1) protein (Homo sapiens, UniProt P36897); assay: Biochemical ALK5 (TGF-βR1) assay to measure pKi (LANCE Ultra ULight kinase assay); conditions: apparent pKi from pIC50 by Cheng-Prusoff, read-out: ALK5 pKi (converted)
T1 construct: purchased Life Technologies PR9075A
T1 sequence (P36897 34-503): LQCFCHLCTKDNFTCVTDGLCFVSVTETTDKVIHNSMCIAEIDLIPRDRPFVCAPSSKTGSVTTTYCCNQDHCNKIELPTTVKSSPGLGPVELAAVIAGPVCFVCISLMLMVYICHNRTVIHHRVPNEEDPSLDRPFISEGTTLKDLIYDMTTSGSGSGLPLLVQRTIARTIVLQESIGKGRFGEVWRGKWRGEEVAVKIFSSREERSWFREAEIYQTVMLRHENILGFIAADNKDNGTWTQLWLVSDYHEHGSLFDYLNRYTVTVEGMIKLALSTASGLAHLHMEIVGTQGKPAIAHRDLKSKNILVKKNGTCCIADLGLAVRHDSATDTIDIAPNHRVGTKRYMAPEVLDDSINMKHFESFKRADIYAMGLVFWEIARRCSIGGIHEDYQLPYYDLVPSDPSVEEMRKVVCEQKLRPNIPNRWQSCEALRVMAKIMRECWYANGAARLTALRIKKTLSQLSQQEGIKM
How it was run: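 Dose range 10 μM–25 pM; enzyme + compound 60 min RT; ATP added (5× stock 125 μM, 2 mM DTT); 60 min 37 °C; stop with EDTA + Eu anti-phospho-Topo IIα Thr1342 Ab; TR-FRET ex 320/340, em 665 nm. 4-param pIC50 → pKi (Cheng-Prusoff).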

Cc1cccc(-c2[nH]cnc2-c2ccc3nccc(C(=O)O[C@H]4CC[C@](C)(N)CC4)c3c2)n1 [Compound 1209, (4-amino-4-methyl-cyclohexyl) 6-[5-(6-methyl-2-pyridyl)-1H-imidazol-4-yl]quinoline-4-carboxylate]
IC50 [1]: 25.1 to 158 nM | Ki [2]: 0.398 to 3.16 nM

Cc1cccc(-c2n[nH]cc2-c2ccc3ncc(O)cc3n2)n1 [Compound 694, 6-[3-(6-methyl-2-pyridyl)-1H-pyrazol-4-yl]-1,5-naphthyridin-3-ol]
IC50 [1]: < 20 nM | Ki [2]: 0.0398 to 0.316 nM

CNC(=O)c1cnc2ccc(-c3cn[nH]c3-c3cccc(C)n3)nc2c1 [Compound 675, N-methyl-6-[5-(6-methyl-2-pyridyl)-lH-pyrazol-4-yl]-1,5-naphthyridine-3-carboxamide]
IC50 [1]: 25.1 to 158 nM | Ki [2]: 0.0398 to 0.316 nM

Cc1nc(-c2n[nH]cc2-c2ccc3ncc(-c4nnc5n4CCNC5)cc3n2)ccc1F [Compound 631, 2-[3-(5-fluoro-6-methyl-2-pyridyl)-1H-pyrazol-4-yl]-7-(5,6,7,8-tetrahydro-[1,2,4]triazolo[4,3-a]pyrazin-3-yl)-1,5-naphthyridine]
IC50 [1]: 1580 to 10000 nM | Ki [2]: 3.98 to 31.6 nM

Cc1cccc(-c2[nH]ncc2-c2ccc3ncc(C(=O)OCC4CNC4)cc3c2)n1 [Compound 790, azetidin-3-ylmethyl 6-(5-(6-methylpyridin-2-yl)-1H-pyrazol-4-yl)quinoline-3-carboxylate]
IC50 [1]: 25.1 to 158 nM | Ki [2]: 0.0398 to 0.316 nM

Cc1cccc(-c2[nH]cnc2-c2ccc3ncc(C(=O)OCCN)cc3c2)n1 [Compound 1040, 2-aminoethyl 6-[5-(6-methyl-2-pyridyl)-1H-imidazol-4-yl]quinoline-3-carboxylate]
IC50 [1]: 25.1 to 158 nM | Ki [2]: 0.398 to 3.16 nM

Cc1cccc(-c2[nH]cnc2-c2ccc3ncc(C(=O)O[C@H]4C[C@H](N)C4)cc3c2)n1 [Compound 782, (3-aminocyclobutyl) 6-[5-(6-methyl-2-pyridyl)-1H-imidazol-4-yl]quinoline-3-carboxylate]
IC50 [1]: 25.1 to 158 nM | Ki [2]: 0.0398 to 0.316 nM

Cc1cccc(-c2[nH]cnc2-c2ccc3ncc(-c4ccc(C(=O)OCCN5C[C@@H](C)N[C@@H](C)C5)cn4)cc3c2)n1 [Compound 1168, 2-[rac-(3S,5R)-3,5-dimethylpiperazin-1-yl]ethyl 6-[6-[5-(6-methyl-2-pyridyl)-1H-imidazol-4-yl]-3-quinolyl]pyridine-3-carboxylate]
IC50 [1]: 25.1 to 158 nM | Ki [2]: 0.0398 to 0.316 nM

CNCCn1cc(-c2cnc3ccc(-c4c[nH]nc4-c4cccc(C)n4)nc3c2)nn1 [Compound 554, N-methyl-2-[4-[6-[3-(6-methyl-2-pyridyl)-1H-pyrazol-4-yl]-1,5-naphthyridin-3-yl]triazol-1-yl]ethanamine]
IC50 [1]: 25.1 to 158 nM | Ki [2]: < 0.0316 nM

Cc1cccc(-c2[nH]cnc2-c2ccc3ncc(C(=O)OC[C@@H]4CCC[C@H](N)C4)cc3c2)n1 (racemic) [Compound 767, [rac-(1R,3S)-3-aminocyclohexyl]methyl 6-[5-(6-methyl-2-pyridyl)-1H-imidazol-4-yl]quinoline-3-carboxylate]
IC50 [1]: 25.1 to 158 nM | Ki [2]: 0.0398 to 0.316 nM

Cc1cccc(-c2[nH]nnc2-c2ccc3ncc(N4CCCNCC4)cc3c2)n1 [Compound 339, 3-(1,4-diazepan-1-yl)-6-[5-(6-methyl-2-pyridyl)-1H-triazol-4-yl]quinoline]
IC50 [1]: 200 to 1260 nM | Ki [2]: 0.398 to 3.16 nM

Cc1cccc(-c2[nH]cnc2-c2ccc3ncc(Nc4ccc(N5CCN(C(C)C)CC5)cn4)cc3c2)n1 [Compound 365, N-[5-(4-isopropylpiperazin-1-yl)-2-pyridyl]-6-[5-(6-methyl-2-pyridyl)-1H-imidazol-4-yl]quinolin-3-amine]
IC50 [1]: 25.1 to 158 nM | Ki [2]: 0.0398 to 0.316 nM

Cc1cccc(-c2[nH]cnc2-c2ccc3ncc(-c4csc(C(=O)O[C@H]5CCN(C)C5)c4)cc3c2)n1 [Compound 755, [(3S)-1-methylpyrrolidin-3-yl] 4-[6-[5-(6-methyl-2-pyridyl)-1H-imidazol-4-yl]-3-quinolyl]thiophene-2-carboxylate]
IC50 [1]: < 20 nM | Ki [2]: 0.0398 to 0.316 nM

Cc1cccc(-c2[nH]cnc2-c2ccc3ncc(-c4csc(C(=O)OCCN5CCC[C@H](N)C5)c4)cc3c2)n1 [Compound 1250, 2-[(3S)-3-amino-1-piperidyl]ethyl 4-[6-[5-(6-methyl-2-pyridyl)-1H-imidazol-4-yl]-3-quinolyl]thiophene-2-carboxylate]
IC50 [1]: 25.1 to 158 nM | Ki [2]: 0.398 to 3.16 nM

Cc1cccc(-c2nc3ccccn3c2-c2ccc3ncc(N4CCC(N5CCN(C)CC5)CC4)cc3n2)n1 [Compound 326, 7-[4-(4-methylpiperazin-1-yl)-1-piperidyl]-2-[2-(6-methyl-2-pyridyl)imidazo[1,2-a]pyridin-3-yl]-1,5-naphthyridine]
IC50 [1]: 25.1 to 158 nM | Ki [2]: 0.0398 to 0.316 nM

Cc1cccc(-c2nnn(Cc3ccccc3)c2-c2ccc3ncc(N4CCC(N5CCN(C)CC5)CC4)cc3c2)n1 [Compound 533, 6-[3-benzyl-5-(6-methyl-2-pyridyl)triazol-4-yl]-3-[4-(4-methylpiperazin-1-yl)-1-piperidyl]quinoline]
IC50 [1]: 200 to 1260 nM | Ki [2]: 0.0398 to 0.316 nM

CNC1CCN(c2cnc3ccc(-c4c(-c5cccc(C)n5)nc5ccccn45)nc3c2)CC1 [Compound 501, N-methyl-1-[6-[2-(6-methyl-2-pyridyl)imidazo[1,2-a]pyridin-3-yl]-1,5-naphthyridin-3-yl]piperidin-4-amine]
IC50 [1]: 25.1 to 158 nM | Ki [2]: 0.0398 to 0.316 nM

Cc1cccc(-c2n[nH]cc2-c2ccc3ncc(-c4cnn5c4NCCC5)cc3n2)n1 [Compound 525, 2-[3-(6-methyl-2-pyridyl)-1H-pyrazol-4-yl]-7-(4,5,6,7-tetrahydropyrazolo[1,5-a]pyrimidin-3-yl)-1,5-naphthyridine]
IC50 [1]: < 20 nM | Ki [2]: < 0.0316 nM

CCN1CCN(CCNc2cnc3ccc(-c4c[nH]nc4-c4cccc(C)n4)nc3c2)CC1 [Compound 508, N-[2-(4-ethylpiperazin-1-yl)ethyl]-6-[3-(6-methyl-2-pyridyl)-1H-pyrazol-4-yl]-1,5-naphthyridin-3-amine]
IC50 [1]: 25.1 to 158 nM | Ki [2]: 0.0398 to 0.316 nM

Cc1cccc(-c2n[nH]cc2-c2ccc3ncc(N4CCC[C@@H]4CO)cc3n2)n1 [Compound 270, [(2R)-1-[6-[3-(6-methyl-2-pyridyl)-1H-pyrazol-4-yl]-1,5-naphthyridin-3-yl]pyrrolidin-2-yl]methanol]
IC50 [1]: 25.1 to 158 nM | Ki [2]: 0.0398 to 0.316 nM

Cc1cccc(-c2n[nH]cc2-c2ccc3ncc(-c4cc5n(n4)CCNC5)cc3n2)n1 [Compound 83, 2-[3-(6-methyl-2-pyridyl)-1H-pyrazol-4-yl]-7-(4,5,6,7-tetrahydropyrazolo[1,5-a]pyrazin-2-yl)-1,5-naphthyridine]
IC50 [1]: < 20 nM | Ki [2]: < 0.0316 nM

Cc1cccc(-c2n[nH]cc2-c2ccc3ncc(N4CCC(O)CC4)cc3n2)n1 [Compound 282, 1-[6-[3-(6-methyl-2-pyridyl)-1H-pyrazol-4-yl]-1,5-naphthyridin-3-yl]piperidin-4-ol]
IC50 [1]: < 20 nM | Ki [2]: < 0.0316 nM

CNCCn1cc(-c2cnc3ccc(-c4c(-c5cccc(C)n5)n[nH]c4N)nc3c2)cn1 [Compound 512, 4-[7-[1-[2-(methylamino)ethyl]pyrazol-4-yl]-1,5-naphthyridin-2-yl]-3-(6-methyl-2-pyridyl)-1H-pyrazol-5-amine]
IC50 [1]: 200 to 1260 nM | Ki [2]: 0.0398 to 0.316 nM

Cc1cccc(-c2n[nH]cc2-c2ccc3nccc(CN4CCC(N5CCOCC5)CC4)c3n2)n1 [Compound 849, 4-[1-[[6-[3-(6-methyl-2-pyridyl)-1H-pyrazol-4-yl]-1,5-naphthyridin-4-yl]methyl]-4-piperidyl]morpholine]
IC50 [1]: 200 to 1260 nM | Ki [2]: 0.398 to 3.16 nM

Cc1cccc(-c2n[nH]cc2-c2ccc3ncc(Nc4ccc(N5CCNCC5)cn4)cc3c2)n1 [Compound 121, 6-[3-(6-methyl-2-pyridyl)-1H-pyrazol-4-yl]-N-(5-piperazin-1-yl-2-pyridyl)quinolin-3-amine]
IC50 [1]: 25.1 to 158 nM | Ki [2]: < 0.0316 nM

Cc1cccc(-c2n[nH]cc2-c2ccc3ncc(N4CCN(CCN(C)C)CC4)cc3n2)n1 [Compound 292, N,N-dimethyl-2-[4-[6-[3-(6-methyl-2-pyridyl)-1H-pyrazol-4-yl]-1,5-naphthyridin-3-yl]piperazin-1-yl]ethanamine]
IC50 [1]: 25.1 to 158 nM | Ki [2]: < 0.0316 nM

Cc1nc(-c2[nH]cnc2-c2ccc3ncc(-c4cn5c(n4)CNCC5)cc3n2)ccc1F [Compound 91, 2-[5-(5-fluoro-6-methyl-2-pyridyl)-1H-imidazol-4-yl]-7-(5,6,7,8-tetrahydroimidazo[1,2-a]pyrazin-2-yl)-1,5-naphthyridine]
IC50 [1]: 25.1 to 158 nM | Ki [2]: 0.0398 to 0.316 nM

Cc1cccc(-c2[nH]cnc2-c2ccc3ncc(-c4csc(C(=O)OC[C@H]5CC[C@H](N)CC5)c4)cc3c2)n1 [Compound 1171, (4-aminocyclohexyl)methyl 4-[6-[5-(6-methyl-2-pyridyl)-1H-imidazol-4-yl]-3-quinolyl]thiophene-2-carboxylate]
IC50 [1]: 25.1 to 158 nM | Ki [2]: < 0.0316 nM
